In patent US11634452B2, “Compounds for treating neurodegenerative disorders” (ETHNODYNE, priority 2017, dated 2023):

Test system: primary rat dopaminergic neurons (TH positive neurons) injured with MPP+
Assay: Neuroprotective effect following exposure to MPP+
Assay type: cell-based
Protocol: This study investigated the neuroprotective effect of the Compound CR777 of example 1 on rat primary mesencephalic cultures following exposure to 1-methyl-4-phenyl pyridinium (MPP^+).
Rat dopaminergic neurons were cultured as described by Visanji et al., 2008 FASEB J. 2008; 22(7):2488-97. Briefly, the midbrains obtained from 15-day old rat embryos (Janvier Labs, France) were dissected under a microscope. The embryonic midbrains were removed and placed in ice-cold medium of Leibovitz (L15, Batch 4290114, Pan Biotech, Germany) containing 2% of Penicillin-Streptomycin (PS, Batch 1451013, Pan Biotech) and 1% of bovine serum albumin (BSA, Batch K030913, Pan Biotech). The ventral portion of the mesencephalic flexure, a region of the developing brain rich in dopaminergic neurons, was used for the cell preparations.
The midbrains were dissociated by trypsinisation for 20 min at 37° C. […] The cells were seeded in supplemented neurobasal medium at a density of 40 000 cells/well in 96 well-plates pre-coated with poly-L-lysine (Batch 3102256, Corning Biocoat) and maintained in a humidified incubator at 37° C. in 5% CO2/95% air atmosphere. Half of the medium was changed every 2 days with fresh medium.
On day 6 of culture, the medium was removed and fresh medium was added, without or with MPP+ at 4 μM diluted in control medium and let for 48 h. […]
The following conditions were assessed: (6 wells per condition) • Control (vehicle) • Compound CR777 of example 1 (1 pmol/L) • Compound CR777 of example 1 (10 pmol/L) • Compound CR777 of example 1 (100 pmol/L) • Compound CR777 of example 1 (1 nmol/L) • Compound CR777 of example 1 (10 nmol/L) • Compound CR777 of example 1 (100 nmol/L) • Compound CR777 of example 1 (1 μmol/L) • Compound CR777 of example 1 (10 μmol/L) […]
Data were expressed in percentage of control conditions (no injury, no compound=100%). All values were expressed as mean+/−SEM (standard error mean) of the 6 wells with statistical analyses on the different conditions (ANOVA followed by Dunnett's test when allowed, using GraphPad Prism software).

In the case of `CC1=C(CO)C(=O)O[C@@H]([C@@H](C)[C@H]2CCC3C4C[C@H](SC[C@H](NC(=O)CC[C@@H](N)C(=O)O)C(=O)NCC(=O)O)[C@]5(O)[C@@H](O)C=CC(=O)[C@]5(C)C4CC[C@@]32C)C1` (some centres unmarked) [CR777], the “TH positive neuron survival” value (added 1 h before MPP+ (4 μM, 48 h), all concentrations 1 pmol/L to 10 μmol/L, more particularly 10 to 100 nmol/L) is reported as “significantly protected neurons from death” and the “neuro-protective effect on MPP+ induced injuries” value (concentrations between 10 and 100 nmol/L, MPP+ 4 μM, 48 h) is reported as “important and significantly neuro-protective effect”.
